# From article PMC4504870 (EJNMMI Research, 2015)
# Like-named read-outs stand apart in the source and are kept apart here. Marks after values point to notes of the source that are not given here.
# How the values were obtained:
# [1] = cited from earlier work
# [2] = cited from earlier work; remark: listed apart in the source
# [3] = 90 min after injection, 12 MBq i.v., anesthetized; cited from earlier work
# [4] = Radiation dose of i.v. ^68Ga-citrate estimated from ^67Ga-citrate data (literature); parameters: species or system human; details: converted from 0.052 rem/mCi assuming only gamma radiation
# [5] = parameters: method as in PMID 4743583; details: i.v., estimated from ^67Ga-citrate data, uniform distribution of radioactivity assumed; cited from earlier work
# [6] = ref Tang 2003, Pauleit 2003 [22], [23]
compound,measurement,setting,value
N[C@@H](Cc1cc(O)c(O)cc1[18F])C(=O)O [6-^18 F-Fluoro-L-Dopa],Human derived ED,"[1]; ref Harvey 1985, Brown 1998 [20], [21]",0.0199 mSv/MBq
same,Animal derived ED,"[2]; calculated with biological risk weight factors of ICRP 30, ref Harvey 1985, Brown 1998 [20], [21]",0.0539^b mSv/MBq
[11CH3]Nc1ccc(-c2nc3ccc(O)cc3s2)cc1 [^11C-6-OH-BTA-1],Human derived ED,"[1]; ref Parsey 2005, Scheinin 2007 [17], [18]",0.0045 mSv/MBq
same,Animal derived ED,"[2]; males only, ref Parsey 2005, Scheinin 2007 [17], [18]",0.0065^a mSv/MBq
C[N+](C)([11CH3])CCO [^11C-Choline],Human derived ED,[1]; ref Tolvanen 2010 [24],0.0044 mSv/MBq
same,Animal derived ED,[2]; ref Tolvanen 2010 [24],0.0028 mSv/MBq
"N[C@@H](Cc1ccc(OCC[18F])cc1)C(=O)O [^18 F-FET, O-(2-[^18F]fluoroethyl)-L-tyrosine]",Human derived ED,[1]; [6],0.0165 mSv/MBq
same,Animal derived ED,[2]; [6],0.0186 mSv/MBq
[68Ga+3].[Cl-].[Cl-].[Cl-] [^68Ga-chloride],"SUV, blood",[3],2.7 ± 0.3
same,"SUV, liver",[3],5.9 ± 3.3
same,"SUV, lung",[3],1.9 ± 0.8
same,"SUV, muscle",[3],0.2 ± 0.03
same,"SUV, skin",[3],0.5 ± 0.1
O=C([O-])CC(O)(CC(=O)[O-])C(=O)[O-].[68Ga+3] [^68Ga-citrate],"Estimated absorbed dose for total body, converted",[4],0.014 mSv/MBq
same,Estimated absorbed dose for total body,[5],0.052 rads/mCi
carbon-11-methoxyprogabidic acid [^11C-MPGA],Human derived ED,[1]; ref Santens 1998 [19],0.0053 mSv/MBq
same,Animal derived ED,[2]; ref Santens 1998 [19],0.0048 mSv/MBq
